Consider ten compounds from ChEMBL document CHEMBL4270495, “Oleanane-, ursane-, and quinone methide friedelane-type triterpenoid derivatives: Recent advances in cancer treatment” (Eur J Med Chem, 2017).

For one assay, the system named is MCF-12A. Kind of assay: Cytotoxicity in human MCF12A cells assessed as reduction in cell viability incubated for 24 hrs by MTT assay. It is filed as functional, cell-based. On the technique in general: Tetrazolium assays rely on reduction of a dye to a coloured formazan, in cell work by metabolically active cells.
The subject of a further assay is MDA-MB-468. Nature of the assay: Cytotoxicity in human MDA-MB-468 cells assessed as reduction in cell viability incubated for 24 hrs by MTT assay. It counts as functional, cell-based. The settings on record: MDA-MB-468, 24 h.
The next assay concerns T47D. Kind of assay: Cytotoxicity in human T47D cells assessed as reduction in cell viability incubated for 24 hrs by MTT assay. It is filed as functional, cell-based.
The next assay has as its system HL60/ADR. Nature of the assay: Cytotoxicity in human HL60/ADR cells assessed as reduction in cell viability incubated for 24 hrs by MTT assay. It counts as functional, cell-based.
The subject of assay [1] is MCF7. Nature of the assay: Cytotoxicity in human MCF7 cells assessed as reduction in cell viability incubated for 24 hrs by MTT assay. It is filed as functional, cell-based. The settings on record: MCF7, 24 h.
In assay [2] the test system is MDA-MB-231. Kind of assay: Cytotoxicity in human MDA-MB-231 cells assessed as reduction in cell viability incubated for 24 hrs by MTT assay. The conditions noted are these: MDA-MB-231, 24 h. It is filed as functional, cell-based.
Another assay deals with HL-60. Nature of the assay: Cytotoxicity in human HL60 cells assessed as reduction in cell viability incubated for 24 hrs by MTT assay. The settings on record: HL-60, 24 h. It is filed as functional, cell-based.
A further assay relates to SMMC-7721. Nature of the assay: Cytotoxicity in human SMMC7721 cells assessed as reduction in cell viability incubated for 48 hrs by MTT assay. It is filed as functional, cell-based. The conditions noted are these: SMMC-7721, 48 h.
The subject of the next assay is SGC-7901. Nature of the assay: Cytotoxicity in human SGC7901 cells assessed as reduction in cell viability incubated for 48 hrs by MTT assay. It counts as functional, cell-based. The conditions noted are these: SGC-7901, 48 h.
A short description of assay [3]: Cytotoxicity in human SPC-A1 cells assessed as reduction in cell viability incubated for 24 hrs by MTT assay. It counts as functional, cell-based. The settings on record: SPCA1, 24 h.
The test system of another assay is NCI-H446. Kind of assay: Cytotoxicity in human NCI-H446 cells assessed as reduction in cell viability incubated for 24 hrs by MTT assay. The settings on record: NCI-H446, 24 h. It counts as functional, cell-based.
The subject of a further assay is A-375. Nature of the assay: Cytotoxicity in human A375 cells assessed as reduction in cell viability incubated for 24 hrs by MTT assay. It counts as functional, cell-based. The conditions noted are these: A-375, 24 h.
Assay [4] deals with HepG2. Kind of assay: Cytotoxicity in human HepG2 cells assessed as reduction in cell viability incubated for 48 hrs by MTT assay. The conditions noted are these: HepG2, 48 h. It is filed as functional, cell-based.
The subject of assay [5] is HepG2. Kind of assay: Cytotoxicity in human HepG2 cells assessed as reduction in cell viability incubated for 24 hrs by MTT assay. It counts as functional, cell-based. The settings on record: HepG2, 24 h.
The next assay relates to HeLa. Nature of the assay: Cytotoxicity in human HeLa cells assessed as reduction in cell viability incubated for 48 hrs by MTT assay. It counts as functional, cell-based.
Assay [6] deals with MDA-MB-231. Nature of the assay: Cytotoxicity in human MDA-MB-231 cells assessed as reduction in cell viability incubated for 48 hrs by SRB assay. The settings on record: MDA-MB-231, 48 h. It counts as functional. On the technique in general: In SRB staining, fixed cells bind dye roughly in proportion to their protein.
Assay [7] relates to MCF7. Nature of the assay: Cytotoxicity in human MCF7 cells assessed as reduction in cell viability incubated for 48 hrs by SRB assay. It counts as functional, cell-based. The settings on record: MCF7, 48 h.

As for `CC1(C)CC[C@@]23CC[C@]4(C)[C@@](OC2=O)([C@@H]3C1)[C@@H](Br)C[C@@H]1[C@@]2(C)CC/C(=N\O)C(C)(C)[C@@H]2CC[C@]14C`, the IC50 in the assay on MCF-12A was 20.4 µM; in the assay with MDA-MB-468, 5.81 µM; with T47D, 5.7 µM; in the assay on HL60/ADR it was 12.1 µM; in the assay with MCF7 [1], 6.58 µM; in the assay on MDA-MB-231 [2] it was > 50 µM. Besides, in the assay with HL-60, the IC50 was found to be 10.2 µM.

For `CC1=C(O)C(=O)C=C2C1=CC=C1[C@@]2(C)CC[C@@]2(C)[C@@H]3C[C@](C)(C(=O)NCCO)CC[C@]3(C)CC[C@]12C`, the values for the IC50 in the assay with SMMC-7721 and with SGC-7901 were 0.3 µM and 0.16 µM, respectively.

`COC(=O)[C@]12CCC(C)(C)C[C@H]1C1=CC(=O)[C@@H]3[C@@]4(C)CC/C(=N\O)C(C)(C)[C@@H]4CC[C@@]3(C)[C@]1(C)CC2`: the IC50 with MCF-12A was determined as 25.7 µM; in the assay on MDA-MB-468, 4.25 µM; with T47D, 10.1 µM; in the assay on HL60/ADR, 3.58 µM; with MCF7 [1], 3.22 µM; in the assay with MDA-MB-231 [2] it was 21.1 µM. Besides, the IC50 in the assay with HL-60 stood at 3.72 µM.

Regarding `CC(=O)OC[C@]1(C)[C@@H]2CC[C@]3(C)[C@H](C(=O)C=C4[C@H]5[C@](C(=O)OCC(=O)N/N=C/c6ccccc6)(CC[C@@H](C)[C@@]5(C)O)CC[C@]43C)[C@@]2(C)CC[C@@H]1OC(C)=O`, the 50% inhibitory concentration (IC50) in [3] was 8.6 µM; with NCI-H446 it was 11.7 µM; with A-375, 3.1 µM.

`C[C@@H]1CC[C@]2(C(=O)O)CC[C@]3(C)C(=CC(=O)[C@@H]4[C@@]5(C)CC[C@H](O)[C@](C)(CO)[C@@H]5CC[C@]43C)[C@@H]2[C@]1(C)O`: the IC50 is 86 µM in assay [3]; 11.4 µM with NCI-H446; 16.6 to 17.4 µM with A-375; 8.26 µM in the assay on HepG2 [4]; 7.33 µM with HepG2 [5]; 16.5 µM in the assay on SGC-7901. Also, in the assay on HeLa, the half-maximal inhibitory concentration (IC50) was 18.7 µM.

For the compound `COC1=C(Br)C(=O)c2c([nH]c3c2C[C@]2(C)[C@H]4CC=C5[C@@H]6[C@@H](C)[C@H](C)CC[C@]6(C(=O)O)CC[C@@]5(C)[C@]4(C)CC[C@H]2C3(C)C)C1=O`, the 50% inhibitory concentration (IC50) was 1.2 µM in the assay on SMMC-7721 and 1.6 µM with HepG2 [4].

Turning to `CC1=C(O)C(=O)C=C2C1=CC=C1[C@@]2(C)CC[C@@]2(C)[C@@H]3C[C@](C)(C(=O)NCC(C)O)CC[C@]3(C)CC[C@]12C` (stereo not given in full), the IC50 with SMMC-7721 came out at 0.61 µM; with SGC-7901 it was 0.1 µM.

As for `CC(=O)OC[C@]1(C)[C@@H]2CC[C@]3(C)[C@H](C(=O)C=C4[C@H]5[C@](C(=O)OCC(=O)N/N=C/c6ccc(Cl)cc6)(CC[C@@H](C)[C@@]5(C)O)CC[C@]43C)[C@@]2(C)CC[C@@H]1OC(C)=O`, the concentration for half-maximal inhibition (IC50) (in assay [3]; in the assay with NCI-H446; in the assay with A-375) was > 100 µM in each case.

As for `CC(=O)OC[C@]1(C)[C@@H]2CC[C@]3(C)[C@H](C(=O)C=C4[C@H]5[C@](C(=O)OCC(=O)N/N=C/c6ccc(C)cc6)(CC[C@@H](C)[C@@]5(C)O)CC[C@]43C)[C@@]2(C)CC[C@@H]1OC(C)=O`, the figures for the IC50 (in assay [3]; with NCI-H446; in the assay with A-375) were 7.4 µM, 15 µM and 6.5 µM, respectively.

Turning to `CC1(C)CC[C@]2(C(=O)O)CC[C@]3(C)C(=CC[C@@H]4[C@@]5(C)CC[C@H](O)C(C)(C)[C@@H]5CC[C@]43C)[C@@H]2C1` [OLEANOLIC_ACID], the 50% inhibitory concentration (IC50) in the assay with MCF-12A was > 50 µM; with MDA-MB-468, 38.1 µM; with T47D it was 36.2 µM; with HL60/ADR it was 28.8 µM; in the assay on MCF7 [1], 12.7 µM; in the assay with MDA-MB-231 [2], > 50 µM. Moreover, the IC50 in the assay with HL-60 worked out at 14.8 µM. Further, the 50% growth inhibitory concentration (GI50) in the assay with MDA-MB-231 [6] came out at 17.6 µM; with MCF7 [7], 10.3 µM.

For orientation: IC50 means the concentration needed to halve the response being measured. As usually defined, the GI50 is the concentration at which growth is held to half of that of the control.
